The values below come from BindingDB's records for patent US10053455 (Ab Science, 2018).

In this experiment the target is Tyrosine-protein kinase SYK (Homo sapiens, UniProt P43405). Put plainly: In Vitro SYK Inhibition Assay. As to conditions: pH 7.8; 25 °C. Here is the method: SYK kinase was purified as a full length protein in a baculovirus system near homogeneity. All kinase assays were performed with the Kinase TK (tyrosine kinase) HTRF (Homogeneous Time Resolved Fluorescence) assay developed by Cisbio international. […] Reactions were initiated upon introduction of the enzyme and terminated with the addition of one reaction volume (25 μl) of HTRF detection buffer. Plates were incubated for one hour at room temperature and the time resolved Fluorescence resonance energy transfer signal was measured in a Pherastar FS microplate reader (BMG Labtech). All data were the average of triplicate results with a standard deviation <10%.

With `O=C1NCCN(c2ncc(-c3cccc(Nc4nccc(-c5cccnc5)n4)c3)o2)C12CC2` [US10053455, 019], the IC50 (in general, the point on the concentration scale where inhibition reaches its midpoint) is < 0.5 µM.
